Legend:
[1] = target: Protein Wnt-3a (Mus musculus) (UniProt P27467); experiment: Inhibition of mouse wnt3a expressed in human MDA-MB-231 cells assessed as cyclin D1 level at 30 uM incubated for […] by quantitative real-time PCR analysis relative to control; type: cell-based; set-up: scale not given: the % may be the effect or the level left
[2] = target: Protein Wnt-3a (Homo sapiens) (UniProt P56704); experiment: Inhibition of Wnt3a in human SW480 cells assessed as LEF1 level at 3.3 uM incubated for […] by quantitative real-time PCR analysis relative to control; type: cell-based; set-up: scale not given: the % may be the effect or the level left
SW480 = experiment: Inhibition of Wnt/beta-catenin transactivation signalling in human SW480 cells harboring mutant tcf4 binding sites assessed as relative activity at 3.125 uM incubated for 24 hrs by FOPFlash luciferase assay relative to control; type: cell-based; set-up: scale not given: the % may be the effect or the level left
[3] = target: beta-catenin-B-cell lymphoma 9 protein complex (Homo sapiens) (UniProt P35222+O00512); experiment: Disruption of full length beta-catenin/BCL9 interaction in human HCT116 cells incubated for 24 hrs by co-immunoprecipitation assay; type: cell-based; conditions: HCT-116
[4] = Downregulation of HPRT level in human SW480 cells at 30 uM incubated for […] by quantitative real-time PCR analysis relative to control; type: ADME, cell-based; conditions: sw480, 30 µM
[5] = Downregulation of HPRT level in human SW480 cells at 3.3 uM incubated for […] by quantitative real-time PCR analysis relative to control; type: ADME, cell-based; conditions: sw480, 3.3 µM
[6] = target: Protein Wnt-3a (Mus musculus) (UniProt P27467); experiment: Inhibition of mouse wnt3a expressed in human MDA-MB-231 cells assessed as Axin2 level at 3.3 uM incubated for […] by quantitative real-time PCR analysis relative to control; type: cell-based; set-up: scale not given: the % may be the effect or the level left

Chain of Protein Wnt-3a (Mus musculus) (P27467 whole entry): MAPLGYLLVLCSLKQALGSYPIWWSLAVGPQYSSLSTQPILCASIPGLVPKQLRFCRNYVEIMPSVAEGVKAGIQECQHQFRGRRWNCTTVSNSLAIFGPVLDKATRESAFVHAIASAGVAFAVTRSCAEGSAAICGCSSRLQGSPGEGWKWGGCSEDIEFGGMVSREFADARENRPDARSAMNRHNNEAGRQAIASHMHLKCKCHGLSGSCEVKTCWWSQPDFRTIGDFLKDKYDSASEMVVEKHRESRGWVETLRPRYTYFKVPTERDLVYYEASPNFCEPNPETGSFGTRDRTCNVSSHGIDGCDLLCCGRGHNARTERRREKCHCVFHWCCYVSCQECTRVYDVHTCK
Chain of Protein Wnt-3a (Homo sapiens) (P56704 whole entry): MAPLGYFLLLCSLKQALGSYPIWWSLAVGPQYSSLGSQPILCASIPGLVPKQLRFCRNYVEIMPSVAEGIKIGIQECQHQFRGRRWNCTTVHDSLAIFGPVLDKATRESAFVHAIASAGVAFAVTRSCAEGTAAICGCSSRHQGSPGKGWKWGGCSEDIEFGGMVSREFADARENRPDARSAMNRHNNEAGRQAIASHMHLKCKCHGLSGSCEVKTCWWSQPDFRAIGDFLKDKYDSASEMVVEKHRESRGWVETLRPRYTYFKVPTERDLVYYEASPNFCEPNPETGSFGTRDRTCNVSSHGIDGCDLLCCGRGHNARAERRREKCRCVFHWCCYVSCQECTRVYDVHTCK

Activity [1]: 66% | Activity [2]: 80% | Activity [3]: Dose-Dependent Effect | Activity [4]: 99% | Activity [5]: 98% | Activity [6]: 69%
SMILES: CC(C)(Oc1cccc(N2CCC[C@H](C(=O)N(Cc3ccc(-c4cccs4)cc3)C3CC3)C2)c1)C(=O)NS(=O)(=O)c1ccc(C#N)cc1
Activity (SW480): 99%

— ChEMBL document CHEMBL4823263, “Discovery of 2-(3-(3-Carbamoylpiperidin-1-yl)phenoxy)acetic Acid Derivatives as Novel Small-Molecule Inhibitors of the β-Catenin/B-Cell Lymphoma 9 Protein-Protein Interaction” (J Med Chem, 2021)
